For orientation: EC50 means the midpoint of the concentration-response curve.

Like-named read-outs stand apart in the source and are kept apart here. Where only a bound is given, the exact number is not on record here.

The subject of series [1] is Ewing sarcoma cell lines. Briefly: Dose-response cytotoxicity in Ewing sarcoma cell lines. The class given is cell-based.
Series [2] concerns ES-6 cells. Put plainly: Dose-response cytotoxicity in ES-6 cells. The following applies: for Sensitivity (cytotoxicity): 144 hours. In kind it is cell-based.
Another series relates to SAOS2. Put plainly: Dose-response cytotoxicity in SAOS2. In kind it is cell-based.
Another series deals with EWS cell lines. Put plainly: Drug-pair cytotoxicity with response surface model.
For series [3] the following is noted: ref Morton et al., 2005, 2000; cited from earlier work.
The conditions of series [4]: TMZ to 10 mg/kg in mice; BMN-673 to 0.1 mg/kg (of the MED).
For a further series, the system named is ES-8 EWS cells. Briefly: Single-cell alkali gel electrophoresis. In kind it is cell-based. To be noted: after 12 hours of exposure to the PARPi.
Series [5] has as its system ES-6 cells. To be noted: 72 hours, ref Garnett et al., 2012; cited from earlier work.
Series [6] has as its system Ewing sarcoma cell lines. The following applies: ref Brenner et al., 2012, Garnett et al.; cited from earlier work.
The nature of series [7]: Plasma and tumor pharmacokinetics in mice with orthotopic xenografts. The class given is in vivo, CD1-nude mice. To be noted: for concentration at 12 h: CD1-nude, mouse, orthotopic xenograft tumor, po; for Murine equivalent dose (most appropriate dose for twice-daily oral administration in mice): from plasma AUC in mice compared with plasma PK data in patients.
Series [8] concerns ES-6 cells. To be noted: later timepoints, ref Garnett et al., 2012; cited from earlier work.
A further series deals with PARP1 (Homo sapiens, UniProt P09874). The following applies: 10 micromolar PARPi + 0.01% MMS.
Chain of PARP1 (P09874 whole entry): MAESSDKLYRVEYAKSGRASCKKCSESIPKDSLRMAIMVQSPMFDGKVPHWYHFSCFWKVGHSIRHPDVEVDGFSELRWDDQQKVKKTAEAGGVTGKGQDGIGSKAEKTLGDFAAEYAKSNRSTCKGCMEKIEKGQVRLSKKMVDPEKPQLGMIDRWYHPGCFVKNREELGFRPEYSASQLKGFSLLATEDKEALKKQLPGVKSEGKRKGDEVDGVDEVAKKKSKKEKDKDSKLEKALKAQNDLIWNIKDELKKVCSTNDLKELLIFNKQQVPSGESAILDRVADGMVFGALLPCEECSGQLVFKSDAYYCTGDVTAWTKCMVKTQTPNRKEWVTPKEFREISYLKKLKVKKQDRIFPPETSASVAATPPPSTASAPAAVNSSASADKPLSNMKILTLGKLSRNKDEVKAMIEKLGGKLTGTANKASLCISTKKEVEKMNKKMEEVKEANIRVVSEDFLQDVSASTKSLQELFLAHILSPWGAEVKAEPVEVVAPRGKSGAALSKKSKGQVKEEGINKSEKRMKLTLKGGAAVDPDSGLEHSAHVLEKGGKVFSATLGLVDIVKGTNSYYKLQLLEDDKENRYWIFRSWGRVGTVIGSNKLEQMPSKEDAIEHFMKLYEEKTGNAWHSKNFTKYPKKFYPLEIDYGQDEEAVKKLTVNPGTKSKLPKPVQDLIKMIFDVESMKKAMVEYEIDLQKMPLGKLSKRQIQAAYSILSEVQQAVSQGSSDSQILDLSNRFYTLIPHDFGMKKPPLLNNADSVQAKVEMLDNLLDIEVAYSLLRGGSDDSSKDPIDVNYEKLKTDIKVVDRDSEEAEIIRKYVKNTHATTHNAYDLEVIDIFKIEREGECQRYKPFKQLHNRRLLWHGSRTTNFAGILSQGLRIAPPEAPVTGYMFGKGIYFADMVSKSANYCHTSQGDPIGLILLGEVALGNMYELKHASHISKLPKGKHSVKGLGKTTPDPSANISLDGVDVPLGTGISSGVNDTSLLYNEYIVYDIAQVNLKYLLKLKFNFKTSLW
Where [9] appears, read: translocation-positive EWS cell lines, RSM.
Setting [10] is: EW-8, ES-8, and ES-1 cells, 72 hours of exposure.

In the case of `CCc1c2c(nc3ccc(O)cc13)-c1cc3c(c(=O)n1C2)COC(=O)[C@]3(O)CC` [SN-38], the EC50 in the series with Ewing sarcoma cell lines [1] (144 hours, all EWS cell lines tested excluding ES-6) was less than 10 nM; with SAOS2 it was less than 100 nM. In addition, the “Potency compared to other EWS cell lines” value in the series with ES-6 cells [2] was “significantly lower potency”. In addition, in the series on EWS cell lines (setting [9]), the “Concentration at which PARPi is significantly potentiated” value was in the range of 1 to 10 nM. Further, in series [3], the “Cmax and AUC of SN-38 in mouse plasma versus human plasma” value is “slightly higher”.
With `Cn1nnc2c(C(N)=O)ncn2c1=O` [TMZ, temozolomide], in the series with Ewing sarcoma cell lines [1] (144 h), the EC50 is more than 100000 nM. In series [4], the “Dose reduction needed to make the BMN-673 + TMZ combination tolerable” value is recorded as 70%. Besides, the “Fold higher concentration of TMZ required for the same level of potentiation as IRN” value with EWS cell lines (potentiation of PARPi-mediated killing of EWS cells) is recorded as ≥ 1,000 fold. Besides, the “Concentration required for the same level of PARPi potentiation” value in the series with EWS cell lines (setting [9]) is 10 to 100 µM.
`O=C(c1cc(Cc2n[nH]c(=O)c3ccccc23)ccc1F)N1CCN(C(=O)C2CC2)CC1` [olaparib]: in the series on Ewing sarcoma cell lines [1] (setting [10]), the “Sensitivity (cytotoxicity)” value was “sensitive”. In addition, the “Potency compared to other EWS cell lines” value in the series with ES-6 cells [2] is listed as “significantly lower potency”. Moreover, the “Basal level of DNA damage (comet tail moment)” value in the series with ES-8 EWS cells (10 μM) was “elevated”. Besides, the “Sensitivity (cytotoxicity)” value with ES-6 cells [5] is “resistant”. Besides, the “Sensitivity of EWS cell lines” value with Ewing sarcoma cell lines [6] was “sensitive”. Besides, in [7], the concentration at 12 h is not below 90 nM and the “Murine equivalent dose (most appropriate dose for twice-daily oral administration in mice)” value (“Murine equivalent dose” for short) worked out at 50 mg/kg. Moreover, the “Sensitivity in colony assays” value with ES-6 cells [8] was “some sensitivity”.
Consider `C[C@]1(c2nc3c(C(N)=O)cccc3[nH]2)CCCN1` [veliparib], for which, at PARP1, the “PARP trapping potential (rank order)” value is reported as “BMN-673 > olaparib > veliparib”. In addition, in the series with Ewing sarcoma cell lines [1] (all EWS cell lines except ES-6, 144 hours), the “Sensitivity (cytotoxicity)” value is recorded as “marginal”. Also, the “Sensitivity (cytotoxicity)” value in the series with ES-6 cells [2] was “resistant”. Further, in series [7], the concentration at 12 h was not below 50 nM and the “Murine equivalent dose” value was found to be 12.5 mg/kg.
As to `Cn1ncnc1[C@H]1c2n[nH]c(=O)c3cc(F)cc(c23)N[C@@H]1c1ccc(F)cc1` [BMN-673], the entries for the “Sensitivity (cytotoxicity)” value with Ewing sarcoma cell lines [1] (setting [10]) and in the series with ES-6 cells [2] were “sensitive” and “resistant”, respectively. In the series on ES-8 EWS cells (1 or 10 μM), the “Basal level of DNA damage (comet tail moment)” value is recorded as “elevated”. Moreover, the concentration at 12 h in [7] was not below 15 nM. In addition, the “Murine equivalent dose” value in series [7] was found to be 0.125 mg/kg.

The values are drawn from PMC4386669 (Cell reports, 2014).
